Tests used:
AMPA receptor channels = experiment: AMPA-induced ionic currents in RNA-injected Xenopus oocytes; assay type: cell-based, rat; settings: 10 μmol/l compound; AMPA 100 μmol/l; n = 2
Method: Xenopus oocytes from stages V and VI (Dumont, J. N., Journal of Morphology, Vol. 136, 1972) were micro-injected with total RNA from brain tissue of adult rats (100-130 ng/cell) and kept in the culture medium (composition in mmol/l: 88.0 NaCl, 1.0 KCl, 1.5 CaCl2, 0.8 MgSO4, 2.4 NaHCO3, 5 HEPES, 100 IU/ml penicillin, 100 μg/ml streptomycin, pH 7.4) for up to 10 days at 20° C. Transmembranous ionic currents were recorded as in conventional two-electrode voltage clamp technology with a holding potential of −70 mV (P. Bloms-Funke P, M. Madeja, U. Muβhoff, E.-J. Speckman, Neuroscience Letters, Vol. 205, p. 115, 1996). The OTC interface and the Cellworks Software were used for recording data and controlling the test apparatus (npi, FRG). […] To test the effects of substances brought about via the glycine B-binding site of the NMDA receptor channel, the glycine dosage/response curve was recorded with and without the respective compound according to the invention. […] The data was analyzed using Igor-Pro software (Version 3.1, WaveMetrics USA). […] The significance for unpaired measured quantities is determined by the Mann-Whitney U-Test and for paired measured quantities by the Wilcoxon test (Sysstat. SPSS Inc., USA). EC50 values are calculated according to the following formula: […]

NMDA receptor channel = biological target: T1, NMDA receptor channel (Rattus norvegicus, UniProt P35439); experiment: NMDA/glycine-induced ionic currents in RNA-injected Xenopus oocytes (two-electrode voltage clamp); assay type: cell-based
T1 construct: were micro-injected with total RNA from brain tissue of adult rats; expressed in transfected cells; host or cells: Xenopus laevis oocytes injected with total RNA from adult rat brain
Method: NMDA/Glycine-induced Ionic Currents in RNA-injected Xenopus Oocytes
The experiment to determine functional changes in the NMDA receptor channel due to the compound according to the invention of Formula I was carried out on oocytes of the South African clawed frog, Xenopus laevis. Neuronal NMDA receptor channels were formed for this purpose after injection of RNA from rats' brain into oocytes and were measured by coapplication of NMDA and glycine-activated ionic currents.
Xenopus oocytes from stages V and VI (Dumont, J. N., Journal of Morphology, Vol. 136, 1972) were micro-injected with total RNA from brain tissue of adult rats (100-130 ng/cell) and kept in the culture medium (composition in mmol/l: 88.0 NaCl, 1.0 KCl, 1.5 CaCl2, 0.8 MgSO4, 2.4 NaHCO3, 5 HEPES, 100 IU/ml penicillin, 100 μg/ml streptomycin, pH 7.4) for up to 10 days at 20° C. Transmembranous ionic currents were recorded as in conventional two-electrode voltage clamp technology with a holding potential of −70 mV (P. Bloms-Funke P, M. Madeja, U. Muβhoff, E.-J. Speckman, Neuroscience Letters, Vol. 205, p. 115, 1996). […] To test the effects of substances brought about via the glycine B-binding site of the NMDA receptor channel, the glycine dosage/response curve was recorded with and without the respective compound according to the invention. […] The data was analyzed using Igor-Pro software (Version 3.1, WaveMetrics USA). […]

Kb (NMDA receptor channel; NMDA 100 μmol/l with glycine 0-100 μmol/l, oocytes injected with rat brain RNA, read-out: NMDA/glycine-induced ionic currents pA2 value of glycine dosage/response curve (converted)): 398 nM
SMILES: O=C(O)C1Nc2cc(Cl)cc(Cl)c2C2C=CCC12 (stereo not drawn) [Example 2, 7,9-dichloro-3a,4,5,9b-tetrahydro-3H-cyclopenta[c]quinoline-4-carboxylic Acid]
AMPA-induced ionic currents Inhibition with 10 μmol/l of compounds according to the invention (AMPA receptor channels): 5.4% (n = 2)
Effect on the glycine dosage/response curve (FIG. 1) (NMDA receptor channel; RNA-injected oocytes, amplitude standardized to NMDA/glycine (100/10 μmol/l)): displacement of the glycine dosage/response curve to the right
